According to the CheMixHub ionic liquid set:

Test: xn = mol fraction of the nth substance listed

CN(C)c1ccccc1 + CCCC[n+]1ccn(C)c1.O=S(=O)([N-]S(=O)(=O)C(F)(F)F)C(F)(F)F
viscosity [mPa·s], 100 kPa
Conditions	288.15 K	293.15 K	298.15 K	303.15 K	308.15 K	313.15 K	318.15 K	323.15 K	328.15 K	333.15 K
x1 = 0.1	65.1	51.3	41.3	34	28.3	23.6	20.23	17.37	15.09	13.19
x1 = 0.2	52.2	41.4	33.6	28	23.4	19.61	16.9	14.6	12.74	11.19
x1 = 0.2993	40.5	32.4	26.6	22.26	18.75	15.88	13.77	11.97	10.49	9.29
x1 = 0.4001	30.4	24.6	20.44	17.16	14.66	12.5	10.93	9.56	8.44	7.52
x1 = 0.5005	21.72	17.79	15.06	12.73	10.96	9.44	8.34	7.36	6.55	5.86
x1 = 0.5993	15.08	12.54	10.77	9.21	8.02	7	6.21	5.53	4.98	4.49
x1 = 0.7	9.89	8.36	7.29	6.34	5.58	4.93	4.42	3.98	3.62	3.29
x1 = 0.7996	6.07	5.25	4.64	4.12	3.68	3.3	3	2.74	2.5	2.3
x1 = 0.8997	3.33	2.96	2.67	2.42	2.205	2.028	1.858	1.716	1.591	1.485
x1 = 1	1.536	1.415	1.302	1.206	1.123	1.056	0.981	0.92	0.865	0.819

CC[n+]1ccn(C)c1.N#C[S-] + CC1COC(=O)O1
101.3 kPa
Conditions	electrical conductivity [S/m]	viscosity [mPa·s]
293.15 K, x1 = 0.2045	2.09	5.834
293.15 K, x1 = 0.2984	2.24	7.631
298.15 K, x1 = 0.0989	1.68	3.689
298.15 K, x1 = 0.4	2.36	8.466
298.15 K, x1 = 0.599	2.15	12.93
298.15 K, x1 = 0.7045	2.06	15.47
313.15 K, x1 = 0.7045	2.76	10.1
318.15 K, x1 = 0.2045	3.18	2.991
318.15 K, x1 = 0.2984	3.43	3.817
318.15 K, x1 = 0.599	3.12	7.316
318.15 K, x1 = 0.7045	3.02	8.83
318.15 K, x1 = 0.8942	2.77	11.64
323.15 K, x1 = 0.2045	3.45	2.665
323.15 K, x1 = 0.499	3.49	5.278
323.15 K, x1 = 0.599	3.4	6.4
328.15 K, x1 = 0.499	3.77	4.608
328.15 K, x1 = 0.599	3.68	5.614
328.15 K, x1 = 0.796	3.45	7.7
328.15 K, x1 = 0.8942	3.31	8.9
333.15 K, x1 = 0.0989	3.33	1.702
338.15 K, x1 = 0.0989	3.601	–
338.18 K, x1 = 0.2984	–	2.283
343.15 K, x1 = 0.4	4.79	2.568
343.15 K, x1 = 0.499	4.66	3.183
343.15 K, x1 = 1	4.01	7.236

CCCCCCCCn1cc[n+](C)c1.[Cl-] + CCO + O
298.15 K, 101 kPa
Conditions	viscosity [mPa·s]
x2 = 0.0467, x3 = 0.9348	2.514
x2 = 0.0558, x3 = 0.9143	3.908
x2 = 0.0679, x3 = 0.8854	7.008
x2 = 0.0766, x3 = 0.8576	10.5
x2 = 0.0826, x3 = 0.91	2.007
x2 = 0.0929, x3 = 0.8165	13.64
x2 = 0.0962, x3 = 0.8862	2.748
x2 = 0.0984, x3 = 0.1869	2330
x2 = 0.1218, x3 = 0.7443	18.9
x2 = 0.1329, x3 = 0.8601	2.881
x2 = 0.1594, x3 = 0.6721	21.9
x2 = 0.1807, x3 = 0.7375	7.695
x2 = 0.1867, x3 = 0.7875	3.207
x2 = 0.1968, x3 = 0.1665	855
x2 = 0.2008, x3 = 0.4721	68.1
x2 = 0.2008, x3 = 0.7927	2.822
x2 = 0.2235, x3 = 0.6582	10.37
x2 = 0.2254, x3 = 0.7596	2.603
x2 = 0.2604, x3 = 0.7162	3.164
x2 = 0.2624, x3 = 0.3089	119.1
x2 = 0.2733, x3 = 0.7208	2.591
x2 = 0.2777, x3 = 0.4267	41.41
x2 = 0.2833, x3 = 0.1486	402
x2 = 0.2958, x3 = 0.669	3.56
x2 = 0.3057, x3 = 0.6808	2.662
x2 = 0.3069, x3 = 0.6239	5.009
x2 = 0.3218, x3 = 0.5748	7.072
x2 = 0.3263, x3 = 0.5386	9.47
x2 = 0.3335, x3 = 0.6189	3.791
x2 = 0.3386, x3 = 0.6405	2.729
x2 = 0.3599, x3 = 0.268	58.73
x2 = 0.3651, x3 = 0.6297	2.282
x2 = 0.366, x3 = 0.5069	8.153
x2 = 0.3714, x3 = 0.5658	4.285
x2 = 0.3806, x3 = 0.3659	24.18
x2 = 0.3954, x3 = 0.5743	2.873
x2 = 0.4166, x3 = 0.5418	3.353
x2 = 0.4363, x3 = 0.4778	4.956
x2 = 0.4432, x3 = 0.2332	33.75
x2 = 0.4437, x3 = 0.5387	2.553
x2 = 0.4443, x3 = 0.5002	3.63
x2 = 0.4617, x3 = 0.4303	5.846
x2 = 0.5079, x3 = 0.2907	11.59
x2 = 0.532, x3 = 0.3966	3.823
x2 = 0.5377, x3 = 0.4533	1.472
x2 = 0.544, x3 = 0.4234	2.522
x2 = 0.5558, x3 = 0.186	16.16
x2 = 0.5841, x3 = 0.3951	2.156
x2 = 0.5878, x3 = 0.3295	3.918
x2 = 0.6004, x3 = 0.2361	7.378
x2 = 0.6077, x3 = 0.3891	1.864
x2 = 0.6374, x3 = 0.3073	2.912
x2 = 0.6743, x3 = 0.2932	2.278
x2 = 0.6985, x3 = 0.0625	11.08
x2 = 0.6991, x3 = 0.1777	4.71
x2 = 0.7005, x3 = 0.2845	1.923
x2 = 0.7599, x3 = 0.1919	2.375
x2 = 0.7937, x3 = 0.0428	5.553
x2 = 0.7997, x3 = 0.1184	2.964
x2 = 0.847, x3 = 0.1454	1.508

CCCCCCCCCCCCCC[P+](CCCC)(CCCC)CCCC.CCCCCCCCCCCCc1ccccc1S(=O)(=O)[O-] + CCCCCCCCCCCC
101 kPa
Conditions	viscosity [mPa·s]
298.15 K, x1 = 0.4402	456
303.15 K, x1 = 0.4402	325
308.15 K, x1 = 0.4844	319
313.15 K, x1 = 0.354	127
313.15 K, x1 = 0.4402	180
313.15 K, x1 = 0.4844	236
318.15 K, x1 = 0.6789	596
328.15 K, x1 = 0.354	59.1
328.15 K, x1 = 0.6789	316
338.15 K, x1 = 0.354	39.1
338.15 K, x1 = 0.4844	65.1
343.15 K, x1 = 0.6789	133
353.15 K, x1 = 0.6789	86.1
